Read-outs that look alike come from different tables or passages of the source. Blank lines part the entries; values can stand above or below the compound they belong to.
Legend:
[1] = assay type: in vivo, human; details: for detectability in plasma: after single oral doses of dabigatran etexilate; for AUC(0-inf) / Cmax / Tmax: human, plasma, po
healthy subjects [2] = experiment: Thorough QT study: ECG profiles; assay type: in vivo, human; details: for ∆∆HR / ∆∆QT / ∆∆QTcI: mean (90 % CI); for Adjusted mean (SE) ∆ QTcI: time-matched change from baseline between 1.5 and 3 h post-dose, n=40
[3] = following an oral dose without food; cited from earlier work
healthy subjects [4] = details: after a single dose; cited from earlier work
healthy subjects [5] = experiment: Safety and tolerability evaluation; assay type: in vivo, human
[6] = system: hERG-mediated potassium current; details: human embryonic kidney cells; cited from earlier work
anaesthetised pigs = details: up to 3 mg/kg intravenously; cited from earlier work
[7] = cited from earlier work
healthy subjects [8] = assay type: in vivo, human
[9] = system: isolated guinea pig papillary muscles; details: concentrations up to 10 μmol/L; cited from earlier work
[10] = cited from earlier work; remark: listed apart in the source
[11] = system: activated partial thromboplastin time; details: 600 mg dose; achieved at 2–4 h post-dose; pilot study; cited from earlier work
[12] = moxifloxacin 400 mg, 1:00 h post-dose
[13] = moxifloxacin 400 mg, 1:30 h post-dose
[14] = moxifloxacin 400 mg, 2:00 h post-dose
[15] = moxifloxacin 400 mg, 3:00 h post-dose
[16] = moxifloxacin 400 mg, 6:00 h post-dose
[17] = at gMean Cmax of dabigatran etexilate 150 mg dose
[18] = at gMean Cmax of dabigatran etexilate 600 mg dose
[19] = exposure-response analysis for placebo-corrected CfB of HR, post hoc
[20] = exposure-response analysis for placebo-corrected CfB of QTcI, post hoc
[21] = dabigatran etexilate 150 mg, 1:00 h post-dose
[22] = dabigatran etexilate 150 mg, 1:30 h post-dose
[23] = dabigatran etexilate 150 mg, 2:00 h post-dose
[24] = dabigatran etexilate 150 mg, 3:00 h post-dose
[25] = dabigatran etexilate 150 mg, 6:00 h post-dose
[26] = dabigatran etexilate 150 mg, 12:00 h post-dose
[27] = dabigatran etexilate 150 mg, 24:00 h post-dose
[28] = dabigatran etexilate 150 mg, between 1 and 6 h post-dose
[29] = dabigatran etexilate 600 mg, 1:00 h post-dose
[30] = dabigatran etexilate 600 mg, 1:30 h post-dose
[31] = dabigatran etexilate 600 mg, 2:00 h post-dose
[32] = dabigatran etexilate 600 mg, 3:00 h post-dose
[33] = dabigatran etexilate 600 mg, 6:00 h post-dose
[34] = dabigatran etexilate 600 mg, 12:00 h post-dose
[35] = dabigatran etexilate 600 mg, 24:00 h post-dose
[36] = dabigatran etexilate 600 mg, between 1 and 6 h post-dose

Structure (SMILES): CCOC(=O)CCN(C(=O)c1ccc2c(c1)nc(CNc1ccc(C(=N)N)cc1)n2C)c1ccccn1 [BIBR951]
detectability in plasma [1]: only detectable between 0.5 and 3 h post-dosing and then only in very low concentrations

Structure (SMILES): CCCCCCOC(=O)NC(=N)c1ccc(NCc2nc3cc(C(=O)N(CCC(=O)O)c4ccccn4)ccc3n2C)cc1 [BIBR1087]
detectability in plasma [1]: only detectable between 0.5 and 3 h post-dosing and then only in very low concentrations

Structure (SMILES): COc1c(N2C[C@@H]3CCCN[C@@H]3C2)c(F)cc2c(=O)c(C(=O)O)cn(C3CC3)c12 [Moxifloxacin, moxifloxacin]
∆∆HR (healthy subjects [2]; [12]): 2.4 (0.9 to 3.8) bpm
∆∆QT (healthy subjects [2]; [12]): 8.3 (4.7 to 11.9) ms
∆∆QTcI (healthy subjects [2]; [12]): 11.1 (8.4 to 13.8) ms
∆∆HR (healthy subjects [2]; [13]): 1.3 (0.1 to 2.5) bpm
∆∆QT (healthy subjects [2]; [13]): 11.9 (8.3 to 15.5) ms
∆∆QTcI (healthy subjects [2]; [13]): 12.8 (10.2 to 15.6) ms
∆∆HR (healthy subjects [2]; [14]): 0.4 (−1.0 to 1.7) bpm
∆∆QT (healthy subjects [2]; [14]): 13.6 (10.4 to 16.9) ms
∆∆QTcI (healthy subjects [2]; [14]): 14.1 (11.7 to 16.5) ms
∆∆QTcI (healthy subjects [2]; moxifloxacin 400 mg, 2:00 h post-dose, listed as moxifloxacin): 14.1 ms
∆∆HR (healthy subjects [2]; [15]): 2.7 (1.1 to 4.4) bpm
∆∆QT (healthy subjects [2]; [15]): 10.3 (6.9 to 13.8) ms
∆∆QTcI (healthy subjects [2]; [15]): 14.1 (11.4 to 16.7) ms
∆∆HR (healthy subjects [2]; [16]): 1.5 (0.1 to 2.8) bpm
∆∆QT (healthy subjects [2]; [16]): 9.2 (6.1 to 12.2) ms
∆∆QTcI (healthy subjects [2]; [16]): 10.4 (8.0 to 12.8) ms
Mean (SE) [90 % CI] ∆∆ QTcI (healthy subjects [2]; moxifloxacin 400 mg, placebo-corrected change from baseline between 1.5 and 3 h post-dose): 14.2 ms
time of peak plasma concentration [3]: 1 to 4 h
QT-interval prolongation (healthy subjects [4]): 8 to 14 ms
Global tolerability (good / satisfactory / not satisfactory / bad) (healthy subjects [5]; investigator-assessed): one subject who responded ‘not satisfactory’
subjects with adverse events within the treatment period (healthy subjects [5]; moxifloxacin 400 mg, one subject of 40 ('feeling dazed')): 2.5%

AUC(0-inf) ([1]; 150 mg): 540 ng·h/mL
Cmax ([1]; 150 mg): 71.4 ng/mL
Tmax ([1]; 150 mg): 2.03 h
AUC(0-inf) ([1]; 600 mg): 2230 ng·h/mL
Cmax ([1]; 600 mg): 281 ng/mL
Tmax ([1]; 600 mg): 3 h
Predicted value of ∆∆HR at Cmax (90 % CI) (healthy subjects [8]; [17]): 0.3 (−0.4 to 1.0) bpm
Predicted value of ∆∆HR at Cmax (90 % CI) (healthy subjects [8]; [18]): 0.4 (−0.9 to 1.7) bpm
PK-∆∆HR intercept (healthy subjects [8]; [19]): 0.26 bpm
PK-∆∆HR slope (healthy subjects [8]; [19]): 0.0005 bpm/[ng/mL]
Structure (SMILES): [H]/N=C(/N)c1ccc(NCc2nc3cc(C(=O)N(CCC(=O)O)c4ccccn4)ccc3n2C)cc1 [dabigatran]
effect on hERG-mediated potassium current [6]: did not modify the hERG-mediated potassium current
influence on cardiovascular parameters (anaesthetised pigs): no influence on cardiovascular parameters
half-life [7]: 12 to 17 h
Predicted value of ∆∆QTcI at Cmax (90 % CI) (healthy subjects [8]; [17]): 0.4 (−0.9 to 1.7) ms
Predicted value of ∆∆QTcI at Cmax (90 % CI) (healthy subjects [8]; [18]): 0.5 (−1.5 to 2.6) ms
PK-∆∆QTcI intercept (healthy subjects [8]; [20]): 0.34 ms
PK-∆∆QTcI slope (healthy subjects [8]; [20]): ~0 ms/[ng/mL]
PK-∆∆QTcI slope (healthy subjects [8]; exposure-response analysis for placebo-corrected CfB of QTcI, post hoc, listed as Free non-conjugated dabigatran): 0.0006 ms/[ng/mL]
90 % CI of the predicted value of placebo-corrected CfB of QTcI at gMean Cmax (healthy subjects [8]; total and free dabigatran, each dose (all four analyses)): below 3 ms
changes in QT interval [9]: no noteworthy changes in QT interval

Mean Cmax with 600 mg relative to 150 mg dose ([1]; dabigatran etexilate 600 mg versus 150 mg): approximately fourfold higher
Cmax after 600 mg relative to steady-state concentration in patients ([1]; versus patients receiving dabigatran etexilate 150 mg once daily): 4 times
Cmax after 600 mg relative to steady-state concentration in patients ([1]; versus patients receiving dabigatran etexilate 150 mg twice daily): 2.6 times
Structure (SMILES): CCCCCCOC(=O)NC(=N)c1ccc(NCc2nc3cc(C(=O)N(CCC(=O)OCC)c4ccccn4)ccc3n2C)cc1 [Dabigatran etexilate]
upper bound of the two-sided 90 % CI of the largest time-matched mean difference from placebo (QTcI) (healthy subjects [2]; both dose levels (150 mg and 600 mg), 0.5 to 24 h post-dose): 3 to 4 ms
upper limit of 95 % CI, secondary endpoints (QTcI versus placebo) (healthy subjects [2]; both doses (150 mg and 600 mg)): below 4 ms
upper limit of the 95 % CI, primary endpoint (QTcI versus placebo) (healthy subjects [2]; both doses (150 mg and 600 mg)): approximately 1.5 ms
Adjusted mean (SE) ∆ QTcI (healthy subjects [2]; dabigatran etexilate 150 mg single oral dose): −4.9 (1.1) ms
∆∆HR (healthy subjects [2]; [21]): 0.7 (−0.5 to 1.8) bpm
∆∆QTcI (healthy subjects [2]; [21]): −0.1 (−2.5 to 2.2) ms
∆∆HR (healthy subjects [2]; [22]): −0.3 (−1.4 to 0.8) bpm
∆∆QT (healthy subjects [2]; [22]): −0.6 (−3.3 to 2.1) ms
∆∆QTcI (healthy subjects [2]; [22]): −1.4 (−3.2 to 0.4) ms
∆∆HR (healthy subjects [2]; [23]): −0.3 (−1.5 to 0.8) bpm
∆∆QT (healthy subjects [2]; [23]): −0.2 (−2.9 to 2.6) ms
∆∆QTcI (healthy subjects [2]; [23]): −0.7 (−2.9 to 1.6) ms
∆∆QT (healthy subjects [2]; [24]): −1.9 (−4.9 to 1.0) ms
∆∆QTcI (healthy subjects [2]; [24]): −1.1 (−3.3 to 1.2) ms
∆∆QT (healthy subjects [2]; [25]): −0.5 (−3.8 to 2.7) ms
∆∆QTcI (healthy subjects [2]; [25]): −0.4 (−3.0 to 2.2) ms
∆∆HR (healthy subjects [2]; [26]): −0.4 (−1.7 to 0.9) bpm
∆∆QT (healthy subjects [2]; [26]): 1.3 (−1.8 to 4.5) ms
∆∆QTcI (healthy subjects [2]; [26]): 0.9 (−1.7 to 3.5) ms
∆∆HR (healthy subjects [2]; [27]): −0.1 (−1.1 to 1.0) bpm
∆∆QT (healthy subjects [2]; [27]): −0.2 (−2.8 to 2.5) ms
∆∆QTcI (healthy subjects [2]; [27]): −0.1 (−1.9 to 1.7) ms
mean time-matched CfB of QTcI (healthy subjects [2]; [28]): -5.3 ms
upper bound of the two-sided 90 % CI of placebo-adjusted CfB of QTcI (healthy subjects [2]; [28]): 1.5 ms
upper bound of the two-sided 90 % CI of placebo-adjusted CfB of QTcI (healthy subjects [2]; dabigatran etexilate 150 mg, between 1.5 and 3 h post-dose): 1.4 ms
Adjusted mean (SE) ∆ QTcI (healthy subjects [2]; dabigatran etexilate 600 mg single oral dose): −5.0 (1.1) ms
∆∆HR (healthy subjects [2]; [29]): 0.5 (−0.6 to 1.6) bpm
∆∆QT (healthy subjects [2]; [29]): −1.8 (−5.2 to 1.5) ms
∆∆QTcI (healthy subjects [2]; [29]): −1.5 (−3.8 to 0.9) ms
∆∆HR (healthy subjects [2]; [30]): −0.3 (−1.5 to 0.8) bpm
∆∆QT (healthy subjects [2]; [30]): −0.6 (−3.3 to 2.1) ms
∆∆QTcI (healthy subjects [2]; [30]): −1.7 (−3.5 to 0.2) ms
∆∆HR (healthy subjects [2]; [31]): −1.1 (−2.2 to 0.1) bpm
∆∆QT (healthy subjects [2]; [31]): −0.9 (−3.7 to 1.8) ms
∆∆QTcI (healthy subjects [2]; [31]): −2.6 (−4.8 to −0.4) ms
∆∆HR (healthy subjects [2]; [32]): 1.5 (−0.1 to 2.9) bpm
∆∆QT (healthy subjects [2]; [32]): −2.9 (−5.8 to 0.1) ms
∆∆QTcI (healthy subjects [2]; [32]): −1.1 (−3.3 to 1.1) ms
∆∆HR (healthy subjects [2]; [33]): 0.6 (−0.7 to 1.9) bpm
∆∆QT (healthy subjects [2]; [33]): −1.1 (−4.3 to 2.2) ms
∆∆QTcI (healthy subjects [2]; [33]): −0.8 (−3.4 to 1.8) ms
∆∆HR (healthy subjects [2]; [34]): −0.2 (−1.5 to 1.1) bpm
∆∆QT (healthy subjects [2]; [34]): 1.0 (−2.1 to 4.2) ms
∆∆QTcI (healthy subjects [2]; [34]): 0.4 (−2.2 to 3.0) ms
∆∆HR (healthy subjects [2]; [35]): 1.1 (0.0 to 2.2) bpm
∆∆QTcI (healthy subjects [2]; [35]): −1.6 (−3.4 to 0.2) ms
mean time-matched CfB of QTcI (healthy subjects [2]; [36]): -5.4 ms
upper bound of the two-sided 90 % CI of placebo-adjusted CfB of QTcI (healthy subjects [2]; [36]): 1.4 ms
upper bound of the two-sided 90 % CI of placebo-adjusted CfB of QTcI (healthy subjects [2]; dabigatran etexilate 600 mg, between 1.5 and 3 h post-dose): 1.3 ms
prolongation of QTcN, QTcF, uncorrected QT and QTcB (healthy subjects [2]; either dabigatran etexilate dose): none of these parameters was prolonged
prolongation of the QT interval (healthy subjects [2]; overall study result): ≤ 5 ms
QT prolongation or arrhythmogenic effects (conclusion) (healthy subjects [2]; therapeutic (150 mg) and supratherapeutic (600 mg) doses): not associated with QT prolongation or arrhythmogenic effects
steady-state concentration ([10]; patients receiving dabigatran etexilate 150 mg once daily): 99.2 ng/mL
steady-state concentration ([10]; patients receiving dabigatran etexilate 150 mg twice daily): 146 ng/mL
detectability in plasma [1]: only detectable between 0.5 and 3 h post-dosing and then only in very low concentrations
increase in activated partial thromboplastin time [11]: two- to threefold increase
subjects with adverse events within the treatment period (healthy subjects [5]; dabigatran etexilate 150 mg, three subjects of 40): 7.5%
subjects with adverse events within the treatment period (healthy subjects [5]; dabigatran etexilate 600 mg, four subjects of 40): 10%
tolerability (healthy subjects [5]; single oral doses of 150 mg and 600 mg): well tolerated
